Measured values as given in patent publication US7612065B2, “Inhibitors of c-JUN N-terminal kinases (JNK)” (priority 2007, dated 2009).
pKi: −log10 of the molar value.

Biological target: T1, JNK3 (Homo sapiens, UniProt P53779)
T1 construct: One such construct encodes amino acid residues Ser40-Glu402 of JNK3α1 and is preceded by Met and Gly residues; Met-Gly (initiation methionine plus glycine added for the NcoI site); made in house; host or cells: E. coli BL21 (DE3)
Experiment: JNK inhibition assay: spectrophotometric coupled-enzyme assay with activated JNK3
Assay type: biochemical
Conditions: activated JNK3 10 nM, 10 μM ATP, 200 μM EGF receptor peptide, 30° C., competitive inhibition model
Description: A BLAST search of the EST database using the published JNK3α1 cDNA as a query identified an EST clone (#632588) that contained the entire coding sequence for human JNK3α1. Polymerase chain reactions (PCR) using pfu polymerase (Strategene) were used to introduce restriction sites into the cDNA for cloning into the pET-15B expression vector at the NcoI and BamHI sites. The protein was expressed in E. coli. […] This truncation corresponds to Ser 2 of JNK1 and JNK2 proteins, and is preceded by a methionine (initiation) and a glycine residue. The glycine residue was added in order to introduce an NcoI site for cloning into the expression vector. In addition, systematic C-terminal truncations were performed by PCR to identify a construct that give rise to diffraction-quality crystals.
5 mg of JNK3 was diluted to 0.5 mg/ml in 50 mM HEPES buffer, pH 7.5, containing 100 mM NaCl, 5 mM DTT, 20 mM MgCl2 and 1 mM ATP. GST-MKK7(DD) was added at a molar ratio of 1:2.5 GST-MKK7:JNK3. After incubation for 30 minutes at 25° C., the reaction mixture was concentrated 5-fold by ultrafiltration in a Centriprep-30 (Amicon, Beverly, Mass.), diluted to 10 ml and an additional 1 mM ATP added. This procedure was repeated three times to remove ADP and replenish ATP. The final addition of ATP was 5 mM and the mixture incubated overnight at 4° C.
The activated JNK3/GST-MKK7(DD) reaction mixture was exchanged into 50 mM HEPES buffer, pH 7.5, containing 5 mM DTT and 5% glycerol (w/v) by dialysis or ultrafiltration. The reaction mixture was adjusted to 1.1 M potassium phosphate, pH 7.5, and purified by hydrophobic interaction chromatography (at 25° C.) using a Rainin Hydropore column. […] Activated JNK3 (i.e. doubly phosphorylated JNK3) was stored at −70° C. at 0.25-1 mg/ml.
Compounds were assayed for the inhibition of JNK3 by a spectrophotometric coupled-enzyme assay. In this assay, a fixed concentration of activated JNK3 (10 nM) was incubated with various concentrations of a potential inhibitor dissolved in DMSO for 10 minutes at 30° C. in a buffer containing 0.1 M HEPES buffer, pH 7.5, containing 10 mM MgCl2, 2.5 mM phosphoenolpyruvate, 200 μM NADH, 150 μg/mL pyruvate kinase, 50 μg/mL lactate dehydrogenase, and 200 μM EGF receptor peptide. […] The reaction was initiated by the addition of 10 μM ATP and the assay plate is inserted into the spectrophotometer's assay plate compartment that was maintained at 30° C. The decrease of absorbance at 340 nm was monitored as a function of time. The rate data as a function of inhibitor concentration was fitted to competitive inhibition kinetic model to determine the Ki.

T1 sequence (P53779 40-402): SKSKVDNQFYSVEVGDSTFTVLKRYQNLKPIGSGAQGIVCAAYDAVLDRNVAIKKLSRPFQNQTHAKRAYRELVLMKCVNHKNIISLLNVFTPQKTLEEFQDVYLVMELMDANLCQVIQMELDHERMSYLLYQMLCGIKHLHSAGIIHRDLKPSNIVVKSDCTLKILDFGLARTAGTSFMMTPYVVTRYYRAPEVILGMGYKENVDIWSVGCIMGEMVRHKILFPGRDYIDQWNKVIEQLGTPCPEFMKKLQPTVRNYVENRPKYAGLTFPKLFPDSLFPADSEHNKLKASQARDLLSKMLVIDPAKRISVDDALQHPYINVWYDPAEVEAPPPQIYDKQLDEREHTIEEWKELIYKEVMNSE

pKi	Compound
≤ 6.00	Cc1cc(C)c2c(c1)/C(=N/O)C(=O)N2Cc1cccc([N+](=O)[O-])c1 [Compound 88]
≤ 6.00	Cc1cc(C)c2c(c1)/C(=N/O)C(=O)N2Cc1ccccc1C#N [Compound 89]
≤ 6.00	COc1ccccc1-c1nc(CN2C(=O)/C(=N\O)c3cc(C)cc(C)c32)no1 [Compound 90]
≤ 6.00	COc1ccc(-c2nc(CN3C(=O)/C(=N\O)c4cc(C)cc(C)c43)no2)cc1 [Compound 91]
≤ 6.00	Cc1cc(C)c2c(c1)/C(=N/O)C(=O)N2Cc1cccc(Oc2ccccc2)c1 [Compound 92]
≤ 6.00	Cc1cc(C)c2c(c1)/C(=N/O)C(=O)N2Cc1ccc(S(C)(=O)=O)cc1 [Compound 93]
≤ 6.00	COc1cc(CN2C(=O)/C(=N\O)c3cc(C)cc(C)c32)cc(OC)c1 [Compound 94]
≤ 6.00	Cc1cc(C)c2c(c1)/C(=N/O)C(=O)N2Cc1cc(F)cc2c1OCOC2 [Compound 95]
≤ 6.00	Cc1cc(C)c2c(c1)/C(=N/O)C(=O)N2Cc1csc(-c2ccc(Cl)cc2)n1 [Compound 96]
≤ 6.00	COc1ccc(CN2C(=O)/C(=N\O)c3cc(Cl)cc(C)c32)cc1 [Compound 97]
> 6.00	Cc1cc(Cl)cc2c1N(Cc1cccc([N+](=O)[O-])c1)C(=O)/C2=N\O [Compound 98]
≤ 6.00	Cc1cc(Cl)cc2c1N(Cc1ccccc1C#N)C(=O)/C2=N\O [Compound 99]
≤ 6.00	Cc1cc(Cl)cc2c1N(Cc1cccc(Oc3ccccc3)c1)C(=O)/C2=N\O [Compound 100]
≤ 6.00	Cc1cc(Cl)cc2c1N(Cc1ccc(S(C)(=O)=O)cc1)C(=O)/C2=N\O [Compound 101]
> 6.00	COc1cc(CN2C(=O)/C(=N\O)c3cc(Cl)cc(C)c32)cc(OC)c1 [Compound 102]
> 6.00	Cc1cc(Cl)cc2c1N(Cc1cc(F)cc3c1OCOC3)C(=O)/C2=N\O [Compound 103]
≤ 6.00	Cc1cc(Cl)cc2c1N(Cc1ccccn1)C(=O)/C2=N\O [Compound 104]
≤ 6.00	COc1ccc(CN2C(=O)/C(=N\O)c3cc(OC(F)(F)F)ccc32)cc1 [Compound 105]
≤ 6.00	O=C1/C(=N\O)c2cc(OC(F)(F)F)ccc2N1Cc1cccc([N+](=O)[O-])c1 [Compound 106]
≤ 6.00	COc1cc(CN2C(=O)/C(=N\O)c3cc(OC(F)(F)F)ccc32)cc(OC)c1 [Compound 107]
≤ 6.00	O=C1/C(=N\O)c2cc(OC(F)(F)F)ccc2N1Cc1cc(F)cc2c1OCOC2 [Compound 108]
≤ 6.00	COc1ccc(-c2nc(CN3C(=O)/C(=N\O)c4cc(F)ccc43)no2)cc1 [Compound 109]
≤ 6.00	Cc1cc(C)c2c(c1)/C(=N/O)C(=O)N2Cc1ccccn1 [Compound 110]

pKi	Compound
≤ 6.00	Cc1cc(Cl)cc2c1N(Cc1nc3ccccc3[nH]1)C(=O)/C2=N\O [Compound 111]
≤ 6.00	O=C(Nc1ccc2c(c1)/C(=N/O)C(=O)N2Cc1ccccc1)c1ccccc1 [Compound 115]
≤ 6.00	COc1cccc(C(=O)Nc2ccc3c(c2)/C(=N/O)C(=O)N3Cc2ccccc2)c1 [Compound 120]
≤ 6.00	COc1cc(CN2C(=O)/C(=N\O)c3cc(NC(=O)c4cccc(OC)c4)ccc32)cc(OC)c1 [Compound 121]
≤ 6.00	COc1cccc(C(=O)Nc2ccc3c(c2)/C(=N/O)C(=O)N3Cc2cc(F)cc3c2OCOC3)c1 [Compound 122]
≤ 6.00	COc1cc(CN2C(=O)/C(=N\O)c3cc(NC(=O)CCc4ccccc4)ccc32)cc(OC)c1 [Compound 131]
≤ 6.00	O=C(Nc1ccc2c(c1)/C(=N/O)C(=O)N2Cc1ccccc1)c1cccc2ccccc12 [Compound 136]
> 6.00	Cc1ccc2c(c1)N(Cc1cc(F)cc3c1OCOC3)C(=O)/C2=N\O [Compound 149]
> 6.00	COc1cc(CN2C(=O)/C(=N\O)c3ccc(C)cc32)cc(OC)c1 [Compound 150]
> 6.00	COc1cc(CN2C(=O)/C(=N\O)c3ccc(Br)cc32)cc(OC)c1 [Compound 151]
> 6.00	O=C1/C(=N\O)c2ccc(Br)cc2N1Cc1cc(F)cc2c1OCOC2 [Compound 152]
> 6.00	O=C1/C(=N\O)c2ccc(-c3ccccc3)cc2N1Cc1cc(F)cc2c1OCOC2 [Compound 153]
> 6.00	O=C(O)c1ccc(-c2ccc3c(c2)N(Cc2cc(F)cc4c2OCOC4)C(=O)/C3=N\O)cc1 [Compound 154]
> 6.00	COc1cc(CN2C(=O)/C(=N\O)c3ccc(OC)cc32)cc(OC)c1 [Compound 155]
> 6.00	COc1ccc2c(c1)N(Cc1cc(F)cc3c1OCOC3)C(=O)/C2=N\O [Compound 156]
≤ 6.00	O=C1/C(=N\O)c2cc(-c3c(F)cccc3F)ccc2N1Cc1ccccc1 [Compound 157]
≤ 6.00	O=C(CN1C(=O)/C(=N\O)c2cc(Br)ccc21)OCc1ccccc1 [Compound 158]
≤ 6.00	CC(C)CN1C(=O)/C(=N\O)c2cc(Br)ccc21 [Compound 159]
≤ 6.00	C=CCCCN1C(=O)/C(=N\O)c2cc(Br)ccc21 [Compound 160]
≤ 6.00	O=C1c2ccccc2C(=O)N1CCCN1C(=O)/C(=N\O)c2ccc(-c3ccccc3)cc21 [Compound 161]
≤ 6.00	O=C1/C(=N\O)c2ccc(-c3ccccc3)cc2N1Cc1ccccc1-c1ccccc1 [Compound 162]
≤ 6.00	O=C1/C(=N\O)c2ccc(-c3ccccc3)cc2N1CC1OCCO1 [Compound 163]
> 6.00	COc1cc(CN2C(=O)/C(=N\O)c3ccc(C(F)(F)F)cc32)cc(OC)c1 [Compound 164]

pKi	Compound
> 6.00	O=C1/C(=N\O)c2ccc(C(F)(F)F)cc2N1Cc1cc(F)cc2c1OCOC2 [Compound 165]
> 6.00	COc1cc(CN2C(=O)/C(=N\O)c3c(C)cc(C)cc32)cc(OC)c1 [Compound 166]
> 6.00	Cc1cc(C)c2c(c1)N(Cc1cc(F)cc3c1OCOC3)C(=O)/C2=N\O [Compound 167]
≤ 6.00	COc1cccc(-c2ccc3c(c2)N(Cc2cc(=O)oc4cc(OC)ccc24)C(=O)/C3=N\O)c1 [Compound 175]
≤ 6.00	COC(=O)c1cccc(CN2C(=O)/C(=N/O)c3ccc(-c4cccc(OC)c4)cc32)c1 [Compound 176]
≤ 6.00	O=C1/C(=N/O)c2ccc(-c3ccsc3)cc2N1CCOc1ccccc1 [Compound 183]
≤ 6.00	COc1ccc2c(CN3C(=O)/C(=N/O)c4ccc(-c5ccsc5)cc43)cc(=O)oc2c1 [Compound 184]
≤ 6.00	COC(=O)c1cccc(CN2C(=O)/C(=N/O)c3ccc(-c4ccsc4)cc32)c1 [Compound 185]
≤ 6.00	COC(=O)CCCN1C(=O)/C(=N/O)c2ccc(-c3ccsc3)cc21 [Compound 186]
≤ 6.00	O=C1c2ccccc2C(=O)N1CCCN1C(=O)/C(=N/O)c2ccc(CBr)cc21 [Compound 187]
≤ 6.00	COc1ccc2c(CN3C(=O)/C(=N/O)c4ccc(CBr)cc43)cc(=O)oc2c1 [Compound 188]
> 6.00	COC(=O)c1cccc(CN2C(=O)/C(=N/O)c3ccc(CBr)cc32)c1 [Compound 189]
≤ 6.00	COC(=O)CCCN1C(=O)/C(=N/O)c2ccc(CBr)cc21 [Compound 190]
> 6.00	O=C1/C(=N\O)c2c(Cl)cc(Cl)cc2N1Cc1cc(F)cc2c1OCOC2 [Compound 196]
≤ 6.00	COc1cc(CN2C(=O)/C(=N\O)c3ccc([N+](=O)[O-])cc32)cc(OC)c1 [Compound 198]
> 6.00	COc1cc(CN2C(=O)/C(=N\O)c3c(Br)cccc32)cc(OC)c1 [Compound 199]
≤ 6.00	COc1cc(CN2C(=O)/C(=N\O)c3c(-c4ccccc4)cccc32)cc(OC)c1 [Compound 200]
> 6.00	O=C1/C(=N\O)c2c(Br)cccc2N1Cc1cc(F)cc2c1OCOC2 [Compound 201]
≤ 6.00	O=C1/C(=N\O)c2c(-c3ccccc3)cccc2N1Cc1cc(F)cc2c1OCOC2 [Compound 202]
≤ 6.00	O=C1/C(=N\O)c2c(-c3cccc(F)c3)cccc2N1Cc1cc(F)cc2c1OCOC2 [Compound 203]
≤ 6.00	O=C1/C(=N\O)c2c(-c3ccc(F)cc3)cccc2N1Cc1cc(F)cc2c1OCOC2 [Compound 204]
